{"source": "patent US11155612B2", "about": "“vNAR antibody which binds VEGF for use in dogs or cats” (CENTRO DE INVESTIGACIÓN CIENTÍFICA Y DE EDUCACIÓN SUPERIOR …, priority 2017, dated 2021)", "tested_on": "human umbilical vein endothelial cells (HUVEC) expressing GFP and normal human dermal fibroblasts (NHDF)", "test": "Angiogenesis assay (vascular tube formation, HUVEC/NHDF co-culture)", "assay_type": "cell-based", "conditions": "VEGF 4 ng/ml; 100 μM suramin positive control", "protocol": "In the vascular tube formation assay, a co-culture system of human umbilical vein endothelial cells (HUVEC) expressing GFP and normal human dermal fibroblasts (NHDF) was used. For cell seeding on day 0, one cryogenic vial of NHDF cells was thawed and resuspended in 12 ml of complete seeding medium. Then, 100 μl of this solution was added per well of a 96-well plate. The cells were incubated at room temperature for 1 hour. Then, 1 cryogenic vial of HUVECs was thawed and resuspended in 12 ml of complete seeding medium. HUVEC (100 μL per well) were seeded into the same plate as NHDFs. The cells were incubated at room temperature for another hour. The plate was then examined in an IncuCyte ZOOM and scanned using the “FOIL” scan type. After 24 hours, the culture medium was replaced with 150 μl of growth medium.\nForty-eight hours after seeding, the cells were treated with VEGF at 4 ng/ml and the test compounds at eight concentrations.\nSerial dilutions of the compounds were prepared using assay media containing VEGF up to the final concentrations in FIG. 3. Then, 150 μl of medium containing the vNARs were added. In untreated wells, media without VEGF were added. For wells without compound, media with VEGF was added. […]\nThe formation of vessel tubes by fluorescently-labeled HUVECs was measured using live-cell imaging, and the effects of the vNARs on this process were assessed."}
{"smiles": "Cc1ccc(C(=O)Nc2ccc(S(=O)(=O)O)c3cc(S(=O)(=O)O)cc(S(=O)(=O)O)c23)cc1NC(=O)c1cccc(NC(=O)Nc2cccc(C(=O)Nc3cc(C(=O)Nc4ccc(S(=O)(=O)O)c5cc(S(=O)(=O)O)cc(S(=O)(=O)O)c45)ccc3C)c2)c1", "note": "[suramin, reference compound]", "values": [{"measurement": "inhibition of VEGF-increased tube branching", "result": "inhibited"}]}
